Data from PMC11942905, “Identification of a Selective Inhibitor of Human NFS1, a Cysteine Desulfurase Involved in Fe-S Cluster Assembly, via Structure-Based Virtual Screening” (International Journal of Molecular Sciences, 2025).
“Also recorded” adds a separate entry of the source. One block for each compound: values may come before it.

Experiments:
[1] = biological target: T1, human NFS1 (Homo sapiens, UniProt Q9Y697); assay: NFS1 inhibition assay (H2S-producing, methylene blue); format: biochemical; details: for inhibition of NFS1: at 100 µM; for IC50: recombinant human NFS1Δ1-55, 1 mM cysteine, n = 4, read-out: IC50, NFS1 activity
T1 construct: His tag (N); made in house; host or cells: E. coli BL21(DE3)
T1 sequence (Q9Y697 56-457): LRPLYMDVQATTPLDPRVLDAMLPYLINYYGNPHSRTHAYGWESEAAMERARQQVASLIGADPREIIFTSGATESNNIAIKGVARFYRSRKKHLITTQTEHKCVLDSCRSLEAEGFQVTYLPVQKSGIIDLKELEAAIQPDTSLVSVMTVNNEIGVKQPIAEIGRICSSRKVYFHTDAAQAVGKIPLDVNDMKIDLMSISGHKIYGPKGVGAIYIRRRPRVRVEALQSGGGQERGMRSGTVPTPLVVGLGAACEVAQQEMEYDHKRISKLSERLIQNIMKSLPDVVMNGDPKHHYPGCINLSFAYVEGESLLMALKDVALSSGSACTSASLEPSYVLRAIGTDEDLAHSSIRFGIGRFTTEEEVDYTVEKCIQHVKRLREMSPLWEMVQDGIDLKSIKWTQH
Method: The 42 candidate compounds were tested for their inhibitory effects on human NFS1 using an in vitro H2S-producing assay. […] Subsequently, the effects of the selected compounds (100 µM) on human NFS1 activity were evaluated.
The activity of NFS1 was determined using a methylene blue assay as described previously, with some modifications. Briefly, reaction mixtures (200 μL) containing 50 mM of Tris-HCl (pH 8.0), 10 μM of PLP, 1 mM of DTT, and 10 μg of NFS1 were preincubated at 37 °C for 3 min. The reaction was then initiated by adding 1 mM of cysteine. After 15 min of incubation at 37 °C, the reaction was quenched by adding 25 μL of 20 mM N,N-dimethyl-p-phenylenediamine in 7.2 M of HCl and 25 μL of 30 mM FeCl3 in 1.2 M of HCl. Subsequently, the reaction mixtures were incubated for another 15 min at 37 °C, followed by centrifugation at 12,000 rpm for 10 minutes to remove the precipitates. The absorbance of the supernatant was measured at 670 nm. A reaction mixture without the substrate cysteine was used as the negative control. The H2S concentration was calculated based on a standard curve prepared using various concentrations of sodium sulfide (Na2S).
For the NFS1 inhibition assays, all test compounds were dissolved in dimethyl sulfoxide (DMSO) to prepare 10 mM stock solutions, which were stored at −80 °C. The stock solutions were diluted to the appropriate concentrations with 50 mM of Tris-HCl (pH 8.0) as required for the experiments. A reaction mixture containing DMSO but no test compounds was used as a negative control. The dose-dependent effects of the inhibitors on NFS1 activity were determined using the methylene blue assay described above. The IC50 values of the inhibitors were calculated by adding different concentrations of the inhibitors to the enzyme reaction mixtures.

[2] = system: A549 cells; assay: Lipid peroxide (LPO) content; format: cell-based, human; details: 48 h, Erastin 2.5 µM, Compound 53 50 µM, 2-AAPA 20 µM, alone or combined
Method: A549 cells were seeded in 10 cm dishes at a density of 2 × 10^6 cells per dish and cultured until they reached 40–60% confluence. […] Lipid peroxidation (LPO) levels were measured using a Lipid Peroxide (LPO) Content Assay Kit (Solarbio, China) following the manufacturer’s instructions.

[3] = system: A549 cells; assay: Endogenous ROS levels, DCFH-DA fluorescence; format: cell-based, human; details: 48 h, Compound 53 50 µM, Erastin 2.5 µM, 2-AAPA 20 µM
Method: Endogenous ROS levels in A549 cells were detected using the fluorescent dye DCFH-DA [48, 49]. A549 cells were cultured in DMEM supplemented with 10% fetal bovine serum at 37 °C in a humidified atmosphere containing 5% CO2. […] Subsequently, the cells were washed three times with prewarmed PBS, and fresh medium containing 10 μM of DCFH-DA was added. After 30 min of incubation, the cells were washed again with prewarmed PBS, fresh medium was added, and the cells were imaged using an inverted fluorescence microscope (Leica, Wetzlar, Germany). Images of live cells were acquired in six different fields. ImageJ software was used to analyze the images.

[4] = system: A549 cells; assay: CCK-8 cell viability assay, A549; format: cell-based, human; details: for IC50: Homo sapiens, A549, CCK-8, 72 h
Method: (§1) Human bronchial epithelial cells (BEAS-2B) and human lung adenocarcinoma A549 cells were purchased from the Institute of Biochemistry and Cell Biology, Chinese Academy of Sciences (Shanghai, China). BEAS-2B and A549 cells were cultured in DMEM supplemented with 10% (v/v) fetal bovine serum and 1% (v/v) penicillin–streptomycin solution at 37 °C in a humidified atmosphere containing 5% CO2. The half-maximal inhibitory concentration (IC50) values of the selected compounds against BEAS-2B and A549 cells were determined using the CCK-8 assay. Briefly, the cells were seeded into 96-well culture plates at a density of 5 × 10^3 cells per well. After 12 h of culture, fresh medium containing varying concentrations of the selected compounds dissolved in DMSO was added for an additional 72-hour incubation. Subsequently, 10 μL of CCK-8 solution was added to each well, followed by a further 1.5-h incubation at 37 °C. The optical density at 450 nm (OD450) for each well was measured using a microplate reader. Medium containing DMSO alone was used as the control group. Cell viability was calculated as the percentage of the OD450 of the experimental group compared to that of the control group, which was set at 100%.

[5] = system: cysteine desulfurase activity of Plasmodium falciparum; set-up: method as in PMID 24709262; details: cited from earlier work
[6] = biological target: T2, cystathionine-γ-lyase (CSE) (Homo sapiens, UniProt P32929); assay: Selectivity assay, H2S-producing activity of CSE; format: biochemical; details: at 100 µM
T2 construct: made in house; host or cells: E. coli
T2 sequence (P32929 whole entry): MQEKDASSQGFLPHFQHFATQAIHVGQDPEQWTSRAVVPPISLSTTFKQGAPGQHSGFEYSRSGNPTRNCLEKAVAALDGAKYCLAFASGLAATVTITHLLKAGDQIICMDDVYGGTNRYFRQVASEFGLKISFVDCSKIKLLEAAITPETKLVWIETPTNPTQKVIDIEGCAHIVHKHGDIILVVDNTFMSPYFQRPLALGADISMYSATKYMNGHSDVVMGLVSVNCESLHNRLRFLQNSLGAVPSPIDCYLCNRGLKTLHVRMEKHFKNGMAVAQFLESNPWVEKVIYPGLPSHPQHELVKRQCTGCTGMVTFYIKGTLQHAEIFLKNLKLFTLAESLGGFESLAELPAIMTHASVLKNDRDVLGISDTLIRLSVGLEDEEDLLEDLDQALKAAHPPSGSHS
Method: (§2) To evaluate the selectivity of Compounds 53 and 56, their effects on the activities of two other PLP-dependent enzymes, human cystathionine-β-synthase (CBS) and cystathionine-γ-lyase (CSE), were determined using a H2S-producing assay. Human CBS and CSE were expressed and purified in E. coli with a purity exceeding 90%, as confirmed by SDS-PAGE (Figures S4A and S5A). Subsequently, the H2S-producing activities of CBS and CSE were assessed in the presence of different concentrations of Compounds 53 and 56. A widely used CBS inhibitor, AOAA, and a specific CSE inhibitor, PAG, were used as positive controls (Figures S4B and S5B).
(§3) The H2S-producing activity of CBS was measured as previously described. The reaction mixture (200 μL) contained 50 mM of Hepes buffer (pH 7.4), 2 mM of homocysteine, 10 μM of PLP, 0.4 mM of lead nitrate, and 5 μg of CBS protein. It was preincubated at 37 °C for 3 min, and the reaction was initiated by the addition of 2 mM of cysteine. The reaction was monitored in a multifunctional microplate reader at 37 °C for 10 min. An extinction coefficient of 5500 M^−1 cm^−1 at 390 nm was used to calculate the lead sulfide concentration. The method used to determine CSE activity in the H2S-producing assay was identical to the CBS assay, except that 1 mM of cysteine was used as the sole substrate. […]

[7] = system: BEAS-2B cells; assay: CCK-8 cell viability assay, BEAS-2B; format: cell-based; details: Homo sapiens, CCK-8, 72 h
Method: as §1

[8] = biological target: T3, human cystathionine-β-synthase (CBS) (Homo sapiens, UniProt P35520); assay: Selectivity assay, H2S-producing activity of CBS; format: biochemical; details: at 100 µM
T3 construct: made in house; host or cells: E. coli
T3 sequence (P35520 1-551): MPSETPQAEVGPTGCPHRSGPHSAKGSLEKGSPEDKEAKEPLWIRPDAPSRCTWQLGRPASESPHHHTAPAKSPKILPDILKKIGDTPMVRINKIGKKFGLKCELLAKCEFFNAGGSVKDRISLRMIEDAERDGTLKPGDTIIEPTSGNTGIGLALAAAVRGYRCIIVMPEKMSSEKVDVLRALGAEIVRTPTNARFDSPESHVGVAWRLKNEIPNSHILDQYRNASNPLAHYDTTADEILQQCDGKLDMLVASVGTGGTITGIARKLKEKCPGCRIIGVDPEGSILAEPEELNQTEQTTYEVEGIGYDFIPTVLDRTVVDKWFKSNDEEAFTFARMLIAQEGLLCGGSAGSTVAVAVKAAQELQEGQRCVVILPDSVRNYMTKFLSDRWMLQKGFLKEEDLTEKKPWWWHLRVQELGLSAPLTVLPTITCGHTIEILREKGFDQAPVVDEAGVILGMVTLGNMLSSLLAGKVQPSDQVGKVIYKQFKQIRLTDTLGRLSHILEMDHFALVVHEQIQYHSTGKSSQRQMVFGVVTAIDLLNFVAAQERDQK
Method: as §2, §3

[9] = biological target: T1, human NFS1; set-up: method as in PMID 36103522; details: cited from earlier work

inhibition of NFS1 [1]: approximately 50%
IC50 [1]: 153 ± 3.42 µM
Structure (SMILES): COc1cc(/C=N\NC(=O)Cc2nnc(NC(=O)c3ccc([N+](=O)[O-])cc3)s2)ccc1O [Compound 1]

Structure (SMILES): CCOc1ccccc1-n1c(C(C)N2CCN(C(=O)COc3ccc(Cl)cc3)CC2)nc2ccccc2c1=O (stereo not shown) [Erastin]
intracellular lipid peroxide (LPO) levels [2]: elevated LPO levels
intracellular ROS levels [3]: significantly increased intracellular ROS levels; also recorded: significantly elevated cellular ROS levels
effect on cell viability ([4]; A549 cells, 2.5 µM): did not significantly affect cell viability

IC50 [4]: ~20 µM
Structure (SMILES): CC(=O)NC(CSC(=O)Nc1ccc(NC(=O)SCC(NC(C)=O)C(=O)O)cc1)C(=O)O (stereo not shown) [Compound 2-AAPA, 2-Acetylamino-3-[4-(2-acetylamino-2-carboxyethylsulfanylcarbonylamino)phenylcarbamoylsulfanyl] propionic acid]
intracellular lipid peroxide (LPO) levels [2]: no significant changes
intracellular ROS levels [3]: significantly elevated cellular ROS levels

Structure (SMILES): N[C@@H]1CON=C1O [D-cycloserine]
IC50 [5]: ~29 µM

inhibition of NFS1 [1]: approximately 50%
IC50 [1]: 141 ± 3.49 µM
Structure (SMILES): O=c1cc(-c2ccc(O)c(O)c2)oc2cc(O[C@H]3O[C@H](CO)[C@@H](O)[C@@H](O)[C@@H]3O)cc(O)c12 [Compound 37]

inhibitory effect on CSE [6]: no significant inhibitory effects
IC50 [4]: 27.7 ± 1.99 µM
inhibitory effect on CBS [8]: no significant inhibitory effects
Structure (SMILES): COc1cc(/C=N/NC(=O)CSc2nnc(SCc3ccccc3)s2)cc(OC)c1O [Compound 56]
IC50 [7]: 78.4 ± 2 µM

Structure (SMILES): COCC1(CO)C(=O)C2CCN1CC2 (stereo not shown) [APR-246, eprenetapopt]
concentrations required to inhibit NFS1 [9]: millimolar concentrations
